Test results: patent publication US20230226096A1 (Orna Therapeutics, Inc., priority 2020, published 2023)
“Also recorded” adds a separate entry of the source.

B1: SA5 (nucleic acid)
DNA: AGTACTTGGTATTCCGGTACCTTTGTACACCTATTTACAAACCCTACCCCTTGTAACCTTAGAAGCAATTATTTAACCGCTCACTAGGGGGTGTGCTATCCAAGCACATCAAGAGCAAGCACTTCTGTCTCCCCGGGAGGGGCTAATGGTACGCTGTGCCCACGGCGGAAATGAGCCCTACCGTTAACCGGCAGTCTACTTCGGGAAGCCCAGTAACTACATTGAAACTTTGAGGCGTTACACTCAGCACATAACCCCAATGTGTAGTTCTGGTCGATGAGCCTTGGCATCCCCCACAGGCGACTGTGGCCAAGGCTGCGTTGGCGGCCAGCCTGCGGACCAAAAGTCCGTAGGACGCCTAATTGTGGACATGGTGTGAAGAGCCTACTGAGCTAGACTGTAGTCCTCCGGCCCCTGAATGCGGCTAATCCTAACCCTGGAGCATCCGCGTGCAACCCAGTACGTAGGGTGTCGTAATGCGTAAGTCTGGGATGGAACCGACTACTTTGGGTGTCCGTGTTTCTTGTTTTTCATACTGGGTCGCTTATGGTTACAACTAATTGTTGTAATCATTGGCAGTGCGCGCTGACCACGCGATTATTGATATTTCCATTTGTTGGATACTCCAATAGTGTCAACTCATATACACAACTTTTACCACTGATCAAGATAAAA
B2: PSIV IGR (nucleic acid)
DNA: GCTGACTATGTGATCTTATTAAAATTAGGTTAAATTTCGAGGTTAAAAATAGTTTTAATATTGCTATAGTCTTAGAGGTCTTGTATATTTATACTTACCACACAAGATGGACCGGAGCAGCCCTCCAATATCTAGTGTACCCTCG
modifications: Plautia stali intestine virus
B3: EV A114 (nucleic acid, listed as Enterovirus sp.)
DNA: TGTGCGCCTGTTTTGAAACCCCCTCCCCCAACTCGAAACGTAGAAGTAATGTACACTACTGATCAGTAGCAGGCGTGGCGCACCAGCCATGTCTCGATCAAGCACTTCTGTTTCCCCGGACTGAGTATCAATAGACTGCTCACGCGGTTGAAGGTGAAAACGTCCGTTACCCGGCTAACTACTTCGAGAAACCTAGTAGCACCATAGAAACTGCAGAGTGTTTCGCTCAGCACTTCCCCCGTGTAGATCAGGTCGATGAGTCACTGCAATCCCCACGGGTGACCGTGGCAGTGGCTGCGTTGGCGGCCTGCCTATGGGGCAACCCATAGGACGCTCTAAGGTGGACATGGTGTGAAGAGTCTATTGAGCTAGTTAGTAGTCCTCCGGCCCCTGAATGCGGCTAATCCTAACTGTGGAGCGCATACTCCCAAACCAGGGAGCAGTGCGTCGTAACGGGCAACTCCGCAGCGGAACCGACTACTTTGGGTGTCCGTGTTTCCTTTTATTCCTATACTGGCTGCTTATGGTGACAATTGAGAGATTGTTACCATATAGCTATTGGATTGGCCATCCAGTGTGTAATAGAGCAATCATTTACCAATTTGTTGGATTTACTCCATTAACCCACACGTCTCTCAACACACTACATTTCATCTTACTACTGAACACTAGAAA

Key:
[1] = LNP particle size (Z-average) and polydispersity index by dynamic light scattering; format: physicochemical; settings: Table 36b, LNPs with circular RNA
Experimental: The microfluidic chamber is cleaned with ethanol and neMYSIS syringe pumps are prepared by loading a syringe with the RNA solution and another syringe with the ethanolic lipid. Both syringes are loaded and under the control of neMESYS software. The solutions are then applied to the mixing chip at an aqueous to organic phase ratio of 2 and a total flow rate of 22 ml/min (14.67 ml/min for RNA and 7.33 ml/min for the lipid solution. Both pumps are started synchronously. The mixer solution that flowed from the microfluidic chip is collected in 4×1 ml fractions with the first fraction being discarded as waste. The remaining solution containing the circRNA-transfer vehicles is exchanged by using G-25 mini desalting columns to 10 mM Tris-HCl, 1 mM EDTA, at pH 7.5, as described above. Following buffer exchange, the materials are characterized for size, and RNA entrapment through DLS analysis and Ribogreen assays, respectively.
(§1) Lipid Nanoparticles (LNPs) were formed using a Precision Nanosystems Ignite instrument with a ‘NextGen’ mixing chamber. […] A 3:1 aqueous to ethanol mixing ratio was used. The formulated LNP then were dialyzed in 1 L of water and exchanged 2 times over 18 hours. Dialyzed LNPs were filtered using 0.2 μm filter. Prior to in vivo dosing, LNPs were diluted in PBS. LNP sizes were determined by dynamic light scattering. A cuvette with 1 mL of 20 μg/mL LNPs in PBS (pH 7.4) was measured for Z-average using the Malvern Panalytical Zetasizer Pro. The Z-average and polydispersity index were recorded.
as §1, with “formulated LNPs were” for “formulated LNP”, “then” for “then were”
as §1, with “formulated LNPs were” for “formulated LNP”, “then” for “then were”, “of 1×PBS” for “of water”

[2] = RNA encapsulation / entrapment by Ribogreen assay; format: physicochemical; settings: Table 36b, LNPs with circular RNA
Experimental: A QUANT-IT™ RIBOGREEN® RNA assay (Invitrogen Corporation Carlsbad, Calif.) can be used to evaluate the encapsulation of circRNA by the nanoparticle composition. The samples are diluted to a concentration of approximately 5 μg/mL or 1 μg/mL in a TE buffer solution (10 mM Tris-HCl, 1 mM EDTA, pH 7.5). 50 μL of the diluted samples are transferred to a polystyrene 96 well plate and either 50 μL of TE buffer or 50 μL of a 2-4% Triton X-100 solution is added to the wells. The plate is incubated at a temperature of 37° C. for 15 minutes. The RIBOGREEN® reagent is diluted 1:100 or 1:200 in TE buffer, and 100 μL of this solution is added to each well. The fluorescence intensity can be measured using a fluorescence plate reader (Wallac Victor 1420 Multilabel Counter; Perkin Elmer, Waltham, Mass.) at an excitation wavelength of, for example, about 480 nm and an emission wavelength of, for example, about 520 nm. The fluorescence values of the reagent blank are subtracted from that of each of the samples and the percentage of free circRNA is determined by dividing the fluorescence intensity of the intact sample (without addition of Triton X-100) by the fluorescence value of the disrupted sample (caused by the addition of Triton X-100). C.
For transfer vehicle compositions including RNA, a QUANT-IT™ RIBOGREEN® RNA assay (Invitrogen Corporation Carlsbad, Calif.) can be used to evaluate the encapsulation of RNA by the transfer vehicle composition. […] The fluorescence intensity can be measured using a fluorescence plate reader (Wallac Victor 1420 Multilabel Counter; Perkin Elmer, Waltham, Mass.) at an excitation wavelength of, for example, about 480 nm and an emission wavelength of, for example, about 520 nm. The fluorescence values of the reagent blank are subtracted from that of each of the samples and the percentage of free RNA is determined by dividing the fluorescence intensity of the intact sample (without addition of Triton X-100) by the fluorescence value of the disrupted sample (caused by the addition of Triton X-100). […]

1C1C7 cells = assay: Modified IRES, stop codon cassettes, 5′ UTR variants: GLuc luminescence in 1C1C7 cells; format: cell-based; settings: 24 and 48 hours after transfection
Source text: This example describes modifications of CK-739, AP-748, and PV-743 IRES sequences, including mutations alternative translation initiation sites.
This example describes modifications of circular RNAs by introducing stop codon or cassette variants. […] 1C1C7 cells were transfected with the circular RNAs.
This example describes modifications of circular RNAs by inserting 5′ UTR variants. […] 1C1C7 cells were transfected with the circular RNAs.

splenic immune cells = assay: Cre circular RNA LNPs in Cre reporter (Ai9) mice: tdTomato+ splenic immune cells; format: in vivo; settings: 0.5 mg/kg RNA intravenously, 48 hr, 0.5 mg/kg
Experimental: Circular RNAs encoding Cre recombinase (Cre) are encapsulated into lipid nanoparticles as previously described. Female, 6-8 week old B6.Cg-Gt(ROSA)26Sortm9(CAG-tdTomato)Hze/J (Ai9) mice were dosed with lipid nanoparticles at 0.5 mg/kg RNA intravenously. Fluorescent tdTomato protein was transcribed and translated in Ai9 mice upon Cre recombination, meaning circular RNAs have been delivered to and translated in tdTomato+ cells. After 48 hr, mice were euthanized and the spleens were harvested, processed into a single cell suspension, and stained with various fluorophore-conjugated antibodies for immunophenotyping via flow cytometry.
Ai9 mice (B6.Cg-Gt(ROSA)26Sortm9(CAG-tdTomato)Hze/J, female, 6-8 weeks, n=3 per group) were injected i.v. with 0.5 mg/kg Cre oRNA LNPs or PBS. Ai9 mice transcribe and translate the fluorescent reporter tdTomato upon Cre recombination; meaning cells which are tdTomato+ have successfully been transfected with Cre oRNA.

HEK293 cells = format: cell-based, human; settings: luminescence from secreted Gluc in supernatant 24 hours after transfection of HEK293 cells; circular RNA encoding Gluc with the named IRES (UTR truncated to 675 nt)

| Molecule | PDI [1] | Z-Average(nm) [1] | RNA Entrapment(%) [2] | Expression (HEK293 cells) | other results |
| --- | --- | --- | --- | --- | --- |
| CCCCCCCCC(CCCCCC)C(=O)OCCCCCCN(CCCCCCOC(=O)C(CCCCCC)CCCCCCCC)CCCn1ccnc1 (stereo not drawn) [Lipid 26, Table 10a] | 0.04 | 84 nm | 96% |  |  |
| UTR2: 5′ UTR variant: canonical Kozak sequence with "a 36-nucleotide unstructured/low GC spacer sequence" added (DNA AATAAGAGAGAAAAGAAGAGTAAGAAGAAATATAAGAGCCACC; expressed or natural sequence) |  |  |  |  | translation / expression (luminescence in supernatant) (1C1C7 cells): more effective |
| CCCCCCCCCCCCCCSCCOC(=O)CCN(CCCn1ccnc1C)CCC(=O)OCCSCCCCCCCCCCCCCC [22-S14, bis(2-(tetradecylthio)ethyl) 3,3′-((3-(2-methyl-1H-imidazol-1-yl)propyl)azanediyl)dipropionate] | 0.05 | 64 nm | 97% |  |  |
| CCCCCCCCCCCCCCSCCOC(=O)CCN(CCCn1ccnc1)CCC(=O)OCCSCCCCCCCCCCCCCC [93-S14, bis(2-(tetradecylthio)ethyl) 3,3′-((3-(1H-imidazol-1-yl)propyl)azanediyl)dipropionate] | 0.04 | 74 nm | 95% |  |  |
| UTR3: 5′ UTR variant: "a higher-GC/structured spacer with a kozak sequence" (DNA CGAACTAGTATTCTTCTGGTCCCCACAGACTCAGAGAGAACCCGCCACC; expressed or natural sequence) |  |  |  |  | translation / expression (luminescence in supernatant) (1C1C7 cells): did not show the same benefit |
| CCCCCCCCC(CCCCCC)C(=O)OCCCCCCN(CCCCCCOC(=O)C(CCCCCC)CCCCCCCC)CCCn1ccnc1 (stereo not drawn) [Lipid 26 from Table 10a] |  |  |  |  | proportion of splenic immune cells expressing tdTomato (transfection) (splenic immune cells): significantly higher myeloid and T cell transfection compared with Lipid 93-S14; also recorded: effective at delivering circular RNAs to many splenic immune cell subsets in mice |
| B1 |  |  |  | 1.61E+08 |  |
| B2 |  |  |  | 1.01E+05 |  |
| B3 |  |  |  | 1.50E+08 |  |
